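Method: 48-hour compound exposure of cells in 96-well plates, five concentrations, linear interpolation of endpoints. TGI is the concentration that stops growth completely.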 Where only a bound is given, the exact number is not on record here.

Among the data in PubChem BioAssay (NCI) are TGI values, retold here.

What all share (assay): NCI tumour cell line growth inhibition, 48 h
Assay [1] has as its system OVCAR-5 ovarian.
The subject of assay [2] is PC-3 prostate.
Assay [3] deals with SK-OV-3 ovarian.
Assay [4] has as its system BT-549 breast.
Assay [5] concerns NCI/ADR-RES ovarian.
The subject of assay [6] is SK-MEL-2 melanoma.
Assay [7] relates to IGROV1 ovarian.
Assay [8] has as its system RPMI-8226 leukemia.
In assay [9] the test system is HCC-2998 colon.
Assay [10] concerns HCT-116 colon.
The subject of assay [11] is SW-620 colon.
For assay [12], the system named is EKVX NSCLC.
Assay [13] relates to NCI-H460 lung.
For assay [14], the system named is NCI-H522 lung.
For assay [15], the system named is NCI-H23 lung.
Assay [16] concerns K-562 leukemia.
In assay [17] the test system is MOLT-4 leukemia.
Assay [18] has as its system COLO 205 colon.
Assay [19] deals with MDA-N.

In the case of `CN(C)C(=S)/N=c1\ssc(=S)n1Cc1ccccc1`, the TGI in assay [1] is over 63.1 µM; in assay [2], 35.5 µM; in assay [3], 5.27 µM; in assay [4], over 100 µM; in assay [5] it was 0.401 µM; in assay [6], 9.67 µM. For the same molecule, the TGI was over 46.4 µM in [7]; 31.6 µM in assay [8]; over 27.7 µM in assay [9]; 29.6 µM in [10]; over 46.4 µM in assay [11]; 57.6 µM in assay [12]. The TGI in assay [13] was found to be 22.6 µM; in assay [14] it was 0.617 µM; in [15], 24.8 µM; in [16] it was 12.5 µM; in [17] it was 29 µM; in assay [18], 1.95 µM. Moreover, in assay [19], the TGI came out at 1.21 µM.
On to `Brc1cc(CCOC2CCCCO2)c(-c2sccc2CCOC2CCCCO2)s1` (stereo unspecified), for which the TGI is over 100 µM in [1]; over 100 µM in assay [2]; over 100 µM in assay [3]; over 100 µM in assay [4]; over 100 µM in assay [5]; 98.4 µM in [6]. In addition, the TGI in [7], in assay [8], in assay [9], in assay [10], in assay [11] and in [12] was over 100 µM in each case. Besides, the TGI in assay [13] was over 100 µM; in [14], over 69.6 µM; in assay [15], over 100 µM; in assay [16], over 31.6 µM; in assay [17], over 61.3 µM; in assay [18], over 100 µM. The molecule further came in with a TGI in assay [19] of over 100 µM.
`CCOC(=O)c1cn2c(n1)sc1c(Cl)c(Cl)ccc12`: the TGI in assay [1] was over 100 µM; in assay [2], over 100 µM; in [3] it was over 100 µM; in assay [4], over 100 µM; in assay [5], 97.9 µM; in assay [6], over 100 µM. For the same molecule, the TGI is over 100 µM in assay [7]; over 100 µM in [8]; 98 µM in [9]; 33 µM in assay [10]; over 100 µM in assay [11]; over 100 µM in assay [12]. Also, the TGI is over 100 µM in assay [13]; 43.4 µM in [14]; over 100 µM in assay [15]; over 46.9 µM in [16]; over 40 µM in [17]; 19.1 µM in assay [18]. For the same molecule, in assay [19], the TGI turned out to be 3.83 µM.
As for `Cc1nn(C(=O)c2ccc(Cl)cc2)c2c1C(c1ccccc1[N+](=O)[O-])SC(N)=N2` (stereo unspecified), the TGI in [1], in [2], in assay [3], in assay [4], in [5] and in assay [6] was over 10 µM in each case. The TGI in [7], in assay [8], in [9], in [10], in [11] and in assay [12] was over 10 µM each time. Besides, the TGI in assay [13], in assay [14], in [15], in assay [16], in [17] and in assay [18] was over 10 µM each time. Besides, in assay [19], the TGI was over 10 µM.
As to `CCn1c(SCC(=O)NNC(=S)Nc2ccc([N+](=O)[O-])cc2)nc2ccccc2c1=O`, the TGI in [1], in assay [2], in assay [3], in assay [4], in assay [5] and in [6] was over 100 µM throughout. Moreover, the TGI in assay [7], in [8], in [9], in assay [10], in assay [11] and in [12] was over 100 µM each time. The TGI in [13] was over 100 µM; in assay [14] it was over 100 µM; in assay [15] it was over 100 µM; in assay [16], over 100 µM; in assay [17], 65.8 µM; in assay [18], over 100 µM. In [19], this molecule displayed a TGI of over 100 µM.
As for `Cn1c2ccc3cc2c(=S)c2cc(ccc21)OCCOCCOCCOCCOCCO3`, the TGI in assay [1], in assay [2], in assay [3], in assay [4], in assay [5] and in [6] was over 10 µM each time. Further, the TGI in assay [7], in assay [8], in [9], in assay [10], in assay [11] and in assay [12] was over 10 µM in each case. Also, the TGI in assay [13], in assay [14], in assay [15], in assay [16], in assay [17] and in assay [18] was over 10 µM each time. In assay [19], this molecule came in with a TGI of over 10 µM.
Consider `CCCNC(=O)CCC(C)C1CCC2C3C(C[C@H](OC(C)=O)[C@]12C)[C@@]1(C)CCC2(C[C@H]1C[C@H]3OC(C)=O)OOC1(CC[C@]3(C)C4C[C@H](OC(C)=O)[C@]5(C)C(C(C)CCC(=O)NCCC)CCC5C4[C@H](OC(C)=O)C[C@@H]3C1)OO2` (stereo partly specified), for which the TGI in assay [1], in assay [2], in [3], in assay [4], in assay [5] and in assay [6] was over 100 µM each time. Further, the TGI in assay [7], in [8], in assay [9], in [10], in assay [11] and in assay [12] was over 100 µM throughout. Also, the TGI in assay [13], in assay [14], in [15], in [16], in assay [17] and in assay [18] was over 100 µM throughout. Further, in assay [19], the TGI was over 100 µM.
Take `O=C(CCc1ccc(O)c(O)c1)NCCc1cc(O)cc(O)c1`: the TGI in assay [1], in assay [2], in assay [3], in assay [4], in assay [5] and in assay [6] was over 100 µM throughout. For the same molecule, the TGI in [7], in [8], in [9], in [10], in assay [11] and in [12] was over 100 µM throughout. The TGI in [13] was over 100 µM; in assay [14] it was over 100 µM; in assay [15], over 100 µM; in [16], 79.4 µM; in assay [17], over 100 µM; in [18] it was over 100 µM. Further, in assay [19], the TGI came out at 48.1 µM.
On to `Nc1ccc2c(SCc3ccc([N+](=O)[O-])cc3)c3ccccc3nc2c1`, for which the TGI in [1] stood at 35.9 µM; in assay [2] it was 29.7 µM; in [3] it was 42.7 µM; in assay [4], 32.1 µM; in assay [5] it was 40.6 µM; in assay [6], 32.4 µM. In addition, the TGI is 39.5 µM in [7]; 14.2 µM in assay [8]; over 54 µM in [9]; 22.7 µM in assay [10]; 13.8 µM in assay [11]; 59 µM in assay [12]. Besides, the TGI in assay [13] is 47.2 µM; in assay [14], 15.1 µM; in [15] it was 32.8 µM; in assay [16], 27.9 µM; in assay [17] it was 6.73 µM; in [18], 6.36 µM. In addition, the TGI in assay [19] came out at 31.1 µM.
Turning to `C[C@H](NC(=O)c1ccc(CNC(=O)/C=C/c2cccc(Oc3ccccc3)c2)cc1)c1ccccc1`, the TGI in assay [1], in assay [2], in [3], in assay [4], in [5] and in assay [6] was over 100 µM in each case. The TGI in assay [7], in assay [8], in assay [9], in assay [10], in assay [11] and in assay [12] was over 100 µM throughout. The TGI in [13], in [14], in [15], in [16], in assay [17] and in assay [18] was over 100 µM throughout. Moreover, the TGI in assay [19] was over 100 µM.
Take `COC(=O)C1CN=CN1CCc1ccccc1` (stereo unspecified): the TGI in assay [1], in assay [2], in assay [3], in assay [4], in assay [5] and in assay [6] was over 100 µM throughout. Moreover, the TGI in assay [7], in assay [8], in [9], in [10], in assay [11] and in assay [12] was over 100 µM in each case. The TGI in assay [13], in [14], in assay [15], in assay [16], in assay [17] and in assay [18] was over 100 µM each time. In assay [19], this molecule registered a TGI of over 100 µM.
Turning to `S=C1N(/N=C/c2c3ccccc3cc3ccccc23)C(=Nc2ccccc2)C(=Nc2ccccc2)N1c1ccccc1`, the TGI in assay [1], in assay [2], in [3], in assay [4], in assay [5] and in assay [6] was over 100 µM throughout. For the same molecule, the TGI in assay [7], in [8], in [9], in assay [10], in assay [11] and in [12] was over 100 µM throughout. Also, the TGI in assay [13], in [14], in assay [15], in [16], in [17] and in assay [18] was over 100 µM in each case. This molecule also displayed a TGI in [19] of over 100 µM.
Consider `Clc1cc(Cl)cc(C=NC23CC4CC(CC(C4)C2)C3)c1`, for which the TGI in assay [1], in assay [2], in assay [3], in [4], in assay [5] and in [6] was over 10 µM throughout. Besides, the TGI in [7], in [8], in assay [9], in assay [10], in assay [11] and in [12] was over 10 µM in each case. Besides, the TGI in assay [13], in assay [14], in assay [15], in assay [16], in assay [17] and in [18] was over 10 µM in each case. Further, the TGI in assay [19] is over 10 µM.
For `C[C@@H](c1ccccc1)N1CN(C(=O)OCc2ccccc2)C(C)(C)CC1=O`, the TGI in assay [1], in assay [2], in assay [3], in assay [4], in assay [5] and in assay [6] was over 100 µM throughout. The TGI in assay [7], in assay [8], in assay [9], in [10], in assay [11] and in [12] was over 100 µM each time. For the same molecule, the TGI in [13], in assay [14], in assay [15], in [16], in assay [17] and in assay [18] was over 100 µM each time. Besides, the TGI in assay [19] was over 100 µM.
